{"source": "patent US20080090834A1", "about": "“SELECTIVE AZOLE PDE10A INHIBITOR COMPOUNDS” (Pfizer Inc, priority 2006, published 2008)", "note": "Counter-ions that a name gives are not always drawn."}
{"biological_target": "T1, cloned rat PDE10A full-length enzyme (Rattus norvegicus, UniProt Q9QYJ6)", "T1 construct": "cloned rat PDE10A full-length enzyme grown in transfected Sf9 insect cells; made in house; host or cells: Sf9 insect cells", "T1 sequence (Q9QYJ6 1-794)": "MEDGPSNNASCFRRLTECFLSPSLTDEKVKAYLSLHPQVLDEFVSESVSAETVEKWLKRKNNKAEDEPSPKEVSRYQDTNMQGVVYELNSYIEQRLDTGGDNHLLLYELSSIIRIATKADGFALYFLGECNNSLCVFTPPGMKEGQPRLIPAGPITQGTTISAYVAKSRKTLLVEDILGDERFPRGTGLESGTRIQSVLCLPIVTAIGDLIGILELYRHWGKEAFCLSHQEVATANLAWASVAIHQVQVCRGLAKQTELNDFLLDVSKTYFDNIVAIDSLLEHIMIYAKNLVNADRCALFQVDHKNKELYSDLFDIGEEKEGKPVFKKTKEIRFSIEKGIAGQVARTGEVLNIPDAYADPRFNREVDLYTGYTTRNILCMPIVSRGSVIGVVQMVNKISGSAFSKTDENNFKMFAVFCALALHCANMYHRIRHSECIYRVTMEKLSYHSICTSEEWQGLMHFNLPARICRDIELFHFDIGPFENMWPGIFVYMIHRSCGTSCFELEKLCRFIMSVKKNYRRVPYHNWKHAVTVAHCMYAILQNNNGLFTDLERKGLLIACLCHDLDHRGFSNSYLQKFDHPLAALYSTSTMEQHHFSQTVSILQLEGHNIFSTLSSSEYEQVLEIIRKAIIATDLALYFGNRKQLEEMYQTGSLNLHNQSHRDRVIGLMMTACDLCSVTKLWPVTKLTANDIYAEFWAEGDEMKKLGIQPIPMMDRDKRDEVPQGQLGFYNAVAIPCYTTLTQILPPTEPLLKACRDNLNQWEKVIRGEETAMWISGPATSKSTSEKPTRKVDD", "assay": "PDE10 enzyme inhibition, [3H]cAMP scintillation proximity assay", "assay_type": "biochemical", "details": "rat PDE10A from Sf9 cells, 20 nM [3H]cAMP, SPA beads, 20 minute incubation at room temperature", "experimental": "Compounds of the present invention were evaluated for ability to inhibit PDE10 enzyme with the following Assay procedure\nThe enzyme used in the procedure was cloned rat PDE10A full-length enzyme grown in transfected Sf9 insect cells. Cloned enzyme was extracted from homogenized cell pellets and stored frozen in homogenizing buffer until use. Compounds were initially dissolved in 100% DMSO and diluted out in 20 percent DMSO/water solution. Final concentration of DMSO in the assay was 2 percent as compounds were tested in triplicate in 96 well plates. Compound solution was placed in well, then tritiated cyclic AMP (New England Nuclear NET275) in assay buffer was added at 20 nM concentration. Then PDE10 enzyme in assay buffer of 50 mM Tris, 8.3 mM MgCl2, pH 7.5 at room temperature was added for a final assay volume of 100 ul. Concentration of enzyme was added such that less than 10 percent of [3H]cAMP at 20 nM was converted to detectable end product, [3H]AMP bound to SPA (Scintillation Proximity Assay) beads. Phosphodiesterase scintillation proximity yttrium silicate beads from Amersham Biosciences (RPNQ0150) were added (50 ul at 20 mg/ml) after a 20 minute incubation at room temperature. Zinc sulphate as a component of the beads stops the phosphodiesterase reaction.\nNon-specific binding to SPA beads was determined by addition of 1 uM papaverine. Total conversion by enzyme without inhibitor of [3H]cAMP to [3H]AMP, as detected by scintillation of [3H]AMP bound to yttrium silicate beads, was determined in the presence of vehicle-only.", "units": {"IC50": "nM"}}
{"molecule": "Cc1cc(-c2nc(-c3cccs3)n(O)c2-c2cnccn2)ccc1-n1ccc2cccnc21", "note": "[Example 109, 1-(4-(1-hydroxy-5-(pyrazin-2-yl))-2-(thiophen-2-yl)-1H-imidazol-4-yl)-2-methylphenyl-1H-pyrrolo[2,3-b]pyridine]", "IC50": 18.4}
{"molecule": "COc1ccc(-c2[nH]c(-c3cccs3)nc2-c2ccc(-n3cnc(-c4ccccc4)c3)cc2)cc1", "note": "[Example 108]", "IC50": 602}
{"molecule": "Cc1nc(-c2cn(-c3cncnc3)c(-c3ccc(-n4ccc5cccnc54)cc3)n2)sc1C", "note": "[Example 85]", "IC50": 74.2}
{"molecule": "Cc1ccc(-n2cc(-c3ccccn3)nc2-c2ccc(-n3ccc4cc(F)cnc43)cc2)cn1", "note": "[Example 21, 5-fluoro-1-(4-(1-(6-methylpyridin-3-yl)-4-(pyridin-2x-yl)-1H-imidazol-2-yl)phenyl)-1H-pyrrolo-[2,3-b]pyridine]", "IC50": 2.82}
{"molecule": "c1ccc(-c2cc(-c3cccnc3)n(-c3ccc(-n4ccc5cccnc54)cc3)n2)nc1", "note": "[Example 121, 1-(4-(3-(pyridin-2-yl)-5-(pyridin-3-yl)-1H-pyrazol-1-yl)phenyl)-1H-pyrrolo)-2,3-b]pyridine bis-TFA salt]", "IC50": 9.29}
{"molecule": "Cc1ccc(-n2cc(-c3nccs3)nc2-c2ccc(-n3ccc4cccnc43)cc2)cn1", "note": "[Example 27, 1-(4-(1-(6-methylpyridin-3-yl)-4-(thiazol-2-yl)-1H-imidazol-2-yl)phenyl)-1H-pyrrolo[2,3-b]pyridine]", "IC50": 1.48}
{"molecule": "c1ccc(-n2cc(-c3nccs3)nc2-c2ccc(-n3ccc4cccnc43)cc2)nc1", "note": "[Example 24]", "IC50": 13.4}
{"molecule": "COc1ccc(-c2[nH]c(-c3cccs3)nc2-c2ccc(-n3ccc4cccnc43)cc2)cc1", "note": "[Example 103]", "IC50": 2.82}
{"molecule": "CN1CCN(c2ccc(-c3[nH]c(-c4cncs4)nc3-c3ccc(-n4ccc5cccnc54)cc3)cn2)CC1", "note": "[Example 107]", "IC50": 2.26}
{"molecule": "Cc1ccc(-n2cc(-c3nccs3)nc2-c2ccc(-n3c(C(F)F)nc4cccnc43)cc2)cn1", "note": "[Example 84]", "IC50": 0.73}
{"molecule": "FC(F)(F)c1ccc(-n2cc(-c3nccs3)nc2-c2ccc(-n3ccc4cccnc43)cc2)cn1", "note": "[Example 32, 1-(4-(1-(6-(trifluoromethyl)pyridin-3-yl)-4-(thiazol-2-yl)-1H-imidazol-2-yl)phenyl)-1H-pyrrolo[2,3-b]pyridine]", "IC50": 2.13}
{"molecule": "CN(C)CCc1cn(-c2ccc(-c3nc(-c4ccccn4)cn3-c3cccnc3)cc2)c2ncccc12", "note": "[Example 10, N,N-dimethyl-2-(1-(4-(4-(pyridin-2-yl)-1-(pyridin-3-yl)-1H-imidazol-2-yl)phenyl)-1H-pyrrolo[2,3-b]pyridin-3-yl)ethanamine]", "IC50": 8.99}
{"molecule": "Cc1ccc(-n2cc(-c3ccccn3)nc2-c2ccc(-n3ccc4ccncc43)cc2)cn1", "note": "[Example 53]", "IC50": 5.69}
{"molecule": "c1ccc(-c2cn(-c3cccnc3)c(-c3ccc(-c4cccc5cccnc45)cc3)n2)nc1", "note": "[Example 79, 8-(4-(4-(pyridin-2-yl)-1-(pyridin-3-yl)-1H-imidazol-2-yl)phenyl)quinoline]", "IC50": 3.94}
{"molecule": "COc1cc(-c2ccc(-c3nc(-c4ccccn4)cn3-c3cccnc3)cc2)c2ncccc2c1", "note": "[Example 80, 6-methoxy-8-(4-(4-(pyridin-2-yl)-1-(pyridin-3-yl)-1H-imidazol-2-yl)phenyl)quinoline]", "IC50": 0.794}
{"molecule": "Cc1ccc(-n2cc(-c3ncc(C)s3)nc2-c2ccc(-n3ccc4cccnc43)cc2)cn1", "note": "[Example 61, 1-(4-(1-(6-methylpyridin-3-yl)-4(5-methylthiazol-2-yl)-1H-imidazol-2-yl)phenyl)-1H-pyrrolo[2,3-b]pyridine]", "IC50": 54.8}
{"molecule": "Cc1ccc(-n2cc(-c3ccccn3)nc2-c2ccc(-n3ccc4cnccc43)cc2)cn1", "note": "[Example 54, 1-(4-(1-(6-methylpyridine-3-yl)-4-(pyridin-2-yl)-1H-imidazol-2-yl)phenyl)-1H-pyrrolo[3,2-c]pyridine]", "IC50": 5.82}
{"molecule": "Cc1cc(-c2nc(-c3cccs3)[nH]c2-c2cnccn2)ccc1-n1ccc2cccnc21", "note": "[Example 113]", "IC50": 47.4}
{"molecule": "Cc1ccc(-n2cc(-c3ccccn3)nc2-c2ccc(-n3c(C(F)(F)F)nc4cccnc43)cc2)cn1", "note": "[Example 58, 2(trifluoromethyl)-3(4-(1-(6-methylpyridin-3-yl)-4-(pyridin-2-yl)-1H-imidazol-2-yl)phenyl)-3H-imidazo[4,5-b]pyridine]", "IC50": 1.06}
{"molecule": "Cc1cn(-c2ccc(-c3nc(-c4ccccn4)cn3-c3cccnc3)cc2)cn1", "note": "[Example 41, 3-(2-(4-(4-methyl-1H-imidazol-1-yl)phenyl)-4-(pyridin-2-yl)-1H-imidazol-1-yl)pyridine]", "IC50": 293}
{"molecule": "Clc1ccc(-c2ccc(-c3nc(-c4ccccn4)cn3-c3cncnc3)cc2)cc1", "note": "[Example 71, 5-(2-(4-(4-chlorophenyl)phenyl)-4-(pyridin-2-yl)-1H-imidazol-1-yl)pyrimidine]", "IC50": 67.6}
{"molecule": "CN(C)c1ccc(-n2cc(-c3nccs3)nc2-c2ccc(-n3ccc4cccnc43)cc2)cn1", "note": "[Example 30, 5-(2-(4-(1H-pyrrolo[2,3-b]pyridin-1-yl)phenyl)-4-(thiazol-2-yl)-1H-imidazol-1-yl)-N,N′-dimethylpyridin-2-mine]", "IC50": 0.607}
{"molecule": "3-(4-(5-(4-methoxyphenyl)-2-(thiophen-2-yl)-1H-imidazol-4-yl)phenyl)-3H-imidazol[4,5-b]pyridine and 1-(4-(5-(4-methoxyphenyl)-2-(thiophen-2-yl)-1H-imidazo[4,5-b]pyridine [Example 101]", "IC50": 0.708}
{"molecule": "Cc1ccc(-n2cc(-c3cncs3)nc2-c2ccc(-n3c(C(F)(F)F)nc4cccnc43)cc2)cn1", "note": "[Example 117, 2-(trifluoromethyl)-3-(4-(1-(6-methylpyridin-3-yl)-4-(thiazol-5-yl)-1H-imidazol-2-yl)phenyl)-3H-imidazo[4,5-b]pyridine]", "IC50": 0.614}
{"molecule": "Fc1c(F)c(F)c2c(ccn2-c2ccc(-c3nc(-c4ccccn4)cn3-c3cccnc3)cc2)c1F", "note": "[Example 38, 4,5,6,7-tetratfluoro-1-(4-(4-(pyridin-2-yl)-1-(pyridin-3-yl)-1H-imidazol-2-yl)phenyl)-1H-indole]", "IC50": 170}
{"molecule": "COc1ccnc2c(-c3ccc(-c4nc(-c5ccccn5)cn4-c4cccnc4)cc3)cc(C)cc12", "note": "[Example 77]", "IC50": 156}
{"molecule": "Cc1ccc(-n2cc(-c3ccccn3)nc2-c2ccc(-n3ccc4cncnc43)cc2)cn1", "note": "[Example 74, 7-(4-(1-(6-methylpyridin-3-yl)-4-(pyridin-2-yl)-1H-imidazol-2-yl)phenyl)-7H-pyrrolo[2,3-d]pyrimidine]", "IC50": 2.27}
{"molecule": "Fc1cc(-n2ccc3cccnc32)ccc1-c1nc(-c2ccccn2)cn1-c1cccnc1", "note": "[Example 11, 1-(3-fluoro-4-(4-(pyridin-2-yl)-1-(pyridin-3-yl)-1H-imidazol-2-yl)phenyl)-1H-pyrrolo[2,3-b]pyridine]", "IC50": 4.14}
{"molecule": "CNCc1ccc(-n2cc(-c3nccs3)nc2-c2ccc(-n3ccc4cccnc43)cc2)cc1", "note": "[Example 33, (4-(2-(4-(1H-pyrrolo[2,3-b]pyridin-1-yl)phenyl)-4-(thiazol-2-yl)-1H-imidazol-1-yl)phenyl-N-methylmethanamine Hydrochloride]", "IC50": 14.1}
{"molecule": "c1ccc(-c2cn(-c3cccnc3)c(-c3ccc(-n4ncc5ccccc54)cc3)n2)nc1", "note": "[Example 35, 1-(4-(4-(pyridin-2-yl)-1-(pyridin-3-yl)-1H-imidazol-2-yl)phenyl)-1H-indazole]", "IC50": 27.8}
